Results reported in ChEMBL document CHEMBL3885861, “Open TG-GATES”.

Organism: Rattus norvegicus
Assay: Open TG-GATES - Regimen: Single
Type: toxicity, organism-based, Sprague-Dawley
Design: regimen Single, gender Male, age 6 weeks
Conditions: in vivo, po, 50 mg/kg, route gavage, dose level Low; for APTT / Bas / Eos / Fbg / Hb / Ht / Lym / MCH / MCHC / MCV / Mono / Neu / PT / Plat / RBC / Ret / WBC: tissue Blood; for KIDNEY_L / KIDNEY_R / KIDNEY_TOTAL: tissue Kidney; for LIVER: tissue Liver; for A/G / ALP / ALT / AST / BUN / CRE / Ca / Cl / DBIL / GLC / IP / K / LDH / Na / PL / RALB / TBIL / TC / TG / TP / gamma-GTP: tissue Plasma

CN1C(=O)CCS(=O)(=O)C1c1ccc(Cl)cc1 (configuration not stated) [CHLORMEZANONE]
TERMINAL_BW (3 h): 228.4 g
APTT (3 h): 16.7 s
Bas (3 h): 0%
Eos (3 h): 1%
Fbg (3 h): 319.2 mg/dL
Hb (3 h): 13.2 g/dL
Ht (3 h): 39.3%
Lym (3 h): 73.8%
MCH (3 h): 21.6 pg
MCHC (3 h): 33.6%
MCV (3 h): 64.3 fL
Mono (3 h): 4%
Neu (3 h): 20.6%
PT (3 h): 13 s
Plat (3 h): 111.8 x10_4/uL
RBC (3 h): 611.6 x10_4/ul
Ret (3 h): 9.4%
WBC (3 h): 84.7 x10_2/uL
KIDNEY_L (3 h): 0.9 g
KIDNEY_R (3 h): 0.9 g
KIDNEY_TOTAL (3 h): 1.9 g
LIVER (3 h): 10.4 g
A/G (3 h): 0.9
ALP (3 h): 1492 IU/L
ALT (3 h): 52.6 IU/L
AST (3 h): 80.2 IU/L
BUN (3 h): 8.8 mg/dL
CRE (3 h): 0.2 mg/dL
Ca (3 h): 11.6 mg/dL
Cl (3 h): 105.2 meq/L
DBIL (3 h): 0.018 mg/dL
GLC (3 h): 187 mg/dL
IP (3 h): 9.6 mg/dL
K (3 h): 4 meq/L
LDH (3 h): 60.2 IU/L
Na (3 h): 141.6 meq/L
PL (3 h): 155 mg/dL
RALB (3 h): 2.7 g/dL
TBIL (3 h): 0.046 mg/dL
TC (3 h): 83.6 mg/dL
TG (3 h): 75.4 mg/dL
TP (3 h): 5.7 g/dL
gamma-GTP (3 h): 1 IU/L
TERMINAL_BW (6 h): 227.2 g
APTT (6 h): 15 s
Bas (6 h): 0%
Eos (6 h): 0.8%
Fbg (6 h): 321.2 mg/dL
Hb (6 h): 13.8 g/dL
Ht (6 h): 40.9%
Lym (6 h): 76.8%
MCH (6 h): 21.6 pg
MCHC (6 h): 33.7%
MCV (6 h): 64.2 fL
Mono (6 h): 3.4%
Neu (6 h): 18.2%
PT (6 h): 13.2 s
Plat (6 h): 115.1 x10_4/uL
RBC (6 h): 637.2 x10_4/ul
Ret (6 h): 7.3%
WBC (6 h): 83.9 x10_2/uL
KIDNEY_L (6 h): 0.9 g
KIDNEY_R (6 h): 1 g
KIDNEY_TOTAL (6 h): 1.9 g
LIVER (6 h): 9.5 g
A/G (6 h): 0.9
ALP (6 h): 1829.6 IU/L
ALT (6 h): 38.6 IU/L
AST (6 h): 71.4 IU/L
BUN (6 h): 8.8 mg/dL
CRE (6 h): 0.2 mg/dL
Ca (6 h): 11.6 mg/dL
Cl (6 h): 107 meq/L
DBIL (6 h): 0.016 mg/dL
GLC (6 h): 189.8 mg/dL
IP (6 h): 10.3 mg/dL
K (6 h): 4.1 meq/L
LDH (6 h): 56.8 IU/L
Na (6 h): 143.2 meq/L
PL (6 h): 153 mg/dL
RALB (6 h): 2.7 g/dL
TBIL (6 h): 0.038 mg/dL
TC (6 h): 78 mg/dL
TG (6 h): 68.4 mg/dL
TP (6 h): 5.7 g/dL
gamma-GTP (6 h): 1.2 IU/L
TERMINAL_BW (9 h): 227.8 g
APTT (9 h): 14.1 s
Bas (9 h): 0%
Eos (9 h): 0.8%
Fbg (9 h): 351 mg/dL
Hb (9 h): 13.4 g/dL
Ht (9 h): 39.3%
Lym (9 h): 77.8%
MCH (9 h): 22.3 pg
MCHC (9 h): 34.1%
MCV (9 h): 65.5 fL
Mono (9 h): 2.2%
Neu (9 h): 18%
PT (9 h): 13.5 s
Plat (9 h): 121.2 x10_4/uL
RBC (9 h): 601.6 x10_4/ul
Ret (9 h): 8%
WBC (9 h): 76.9 x10_2/uL
KIDNEY_L (9 h): 1 g
KIDNEY_R (9 h): 0.9 g
KIDNEY_TOTAL (9 h): 1.9 g
LIVER (9 h): 9.2 g
A/G (9 h): 0.9
ALP (9 h): 1623.2 IU/L
ALT (9 h): 34.4 IU/L
AST (9 h): 71.6 IU/L
BUN (9 h): 9.4 mg/dL
CRE (9 h): 0.2 mg/dL
Ca (9 h): 11.2 mg/dL
Cl (9 h): 106.4 meq/L
DBIL (9 h): 0.02 mg/dL
GLC (9 h): 191.4 mg/dL
IP (9 h): 11.9 mg/dL
K (9 h): 4 meq/L
LDH (9 h): 57.6 IU/L
Na (9 h): 143.8 meq/L
PL (9 h): 121.4 mg/dL
RALB (9 h): 2.6 g/dL
TBIL (9 h): 0.038 mg/dL
TC (9 h): 67.2 mg/dL
TG (9 h): 50.4 mg/dL
TP (9 h): 5.5 g/dL
gamma-GTP (9 h): 1 IU/L
TERMINAL_BW (24 h): 234.7 g
APTT (24 h): 16.1 s
Bas (24 h): 0%
Eos (24 h): 0.8%
Fbg (24 h): 278.2 mg/dL
Hb (24 h): 13.6 g/dL
Ht (24 h): 39.7%
Lym (24 h): 75%
MCH (24 h): 21.7 pg
MCHC (24 h): 34.4%
MCV (24 h): 63.3 fL
Mono (24 h): 3.4%
Neu (24 h): 20.2%
PT (24 h): 13 s
Plat (24 h): 113.6 x10_4/uL
RBC (24 h): 626.8 x10_4/ul
Ret (24 h): 7.6%
WBC (24 h): 72.4 x10_2/uL
KIDNEY_L (24 h): 1.1 g
KIDNEY_R (24 h): 1 g
KIDNEY_TOTAL (24 h): 2.1 g
LIVER (24 h): 11.3 g
A/G (24 h): 0.9
ALP (24 h): 1615.6 IU/L
ALT (24 h): 45 IU/L
AST (24 h): 77.4 IU/L
BUN (24 h): 14.8 mg/dL
CRE (24 h): 0.2 mg/dL
Ca (24 h): 11.1 mg/dL
Cl (24 h): 106.2 meq/L
DBIL (24 h): 0.02 mg/dL
GLC (24 h): 182.2 mg/dL
IP (24 h): 7.4 mg/dL
K (24 h): 4.2 meq/L
LDH (24 h): 83 IU/L
Na (24 h): 142 meq/L
PL (24 h): 137.8 mg/dL
RALB (24 h): 2.6 g/dL
TBIL (24 h): 0.024 mg/dL
TC (24 h): 80.4 mg/dL
TG (24 h): 92.4 mg/dL
TP (24 h): 5.6 g/dL
gamma-GTP (24 h): 1.2 IU/L
